Test results reported in PMC7433010, “Exploration of multi‐target effects of 3‐benzoyl‐5‐hydroxychromen‐2‐one in Alzheimer’s disease cell and mouse models” (Aging Cell, 2020).

Key:
GCLC = test: Western blot of GCLC in ∆K280 TauRD‐DsRed SH‐SY5Y cells; type: cell-based, human; conditions: 1 µM; induced untreated 78%, uninduced 100%
Procedure: (§1) Total proteins from ∆K280 TauRD-DsRed SH-SY5Y cells were obtained using a RIPA buffer containing 50 mM Tris-HCl (pH8.0), 150 mM NaCl, 2 mM EDTA (pH8.0), 50 mM NaF, 0.1% SDS, 0.5% sodium deoxycholate, 1% NP40, and a protease inhibitor cocktail (Sigma-Aldrich). After sonication and sitting on ice for 20 min, the lysates were centrifuged at 14,000 × g for 30 min at 4°C. Protein concentrations were determined using a protein assay kit (Bio-Rad, Hercules, CA, USA), with albumin as a standard. Total proteins (20 µg) were electrophoresed on 10% or 12% SDS-polyacrylamide gel and transferred onto polyvinylidene difluoride (PVDF) membranes (Sigma-Aldrich) through reverse electrophoresis. […] Subsequently, immune complexes were detected using a horseradish peroxidase-conjugated goat anti-mouse or goat anti-rabbit IgG antibody (1:5000; GeneTex, Irvive, CA, USA) and a chemiluminescent substrate (Millipore).

CREB = test: Western blot of CREB in ∆K280 TauRD‐DsRed SH‐SY5Y cells; type: cell-based, human; conditions: 1 µM; induced untreated 82%, uninduced 100%
Procedure: (§2) To knock down CREB expression in ∆K280 TauRD-DsRed SH-SY5Y cells, lentiviral short hairpin RNA (shRNA) targeting CREB (TRCN0000226466), NRF2 (TRCN0000007558), and a negative control scrambled (TRC2.Void) were obtained from National RNAi Core Facility, IMB/GRC, Academia Sinica, Taipei, Taiwan. On day 1, cells were plated on 6-well plates (for protein analysis) or 24-well plates (for neurite outgrowth analysis) in the presence of retinoic acid as described. On the second day, the cells were infected with lentivirus (multiplicity of infection: 3) in medium with polybrene (8 µg/mL; Sigma-Aldrich). […] On day 9, the cells were collected for NRF2, CREB, pCREB, and cleaved CASP3 protein analysis or analyzed for neurite outgrowth as described.
as §1, with “After sonication and sitting on ice for 20 min, the lysates were centrifuged at 14,000 × g for 30 min at 4°C.” left out, “standard.” for “standard. Total proteins (20 µg) were electrophoresed on 10% or 12% SDS-polyacrylamide gel and transferred onto polyvinylidene difluoride (PVDF) membranes (Sigma-Aldrich) through reverse electrophoresis.”

pCREB (S133) = test: Western blot of pCREB (S133) in ∆K280 TauRD‐DsRed SH‐SY5Y cells; type: cell-based, human; conditions: 1 µM; induced untreated 78%, uninduced 100%
Procedure: as §2
as §1, with “After sonication and sitting on ice for 20 min, the lysates were centrifuged at 14,000 × g for 30 min at 4°C.” left out, “standard.” for “standard. Total proteins (20 µg) were electrophoresed on 10% or 12% SDS-polyacrylamide gel and transferred onto polyvinylidene difluoride (PVDF) membranes (Sigma-Aldrich) through reverse electrophoresis.”

BCL2 = test: Western blot of BCL2 in ∆K280 TauRD‐DsRed SH‐SY5Y cells; type: cell-based, human; conditions: 1 µM; induced untreated 83%, uninduced 100%
Procedure: as §1

GADD45B = test: Western blot of GADD45B in ∆K280 TauRD‐DsRed SH‐SY5Y cells; type: cell-based, human; conditions: 1 µM; induced untreated 65%, uninduced 100%
Procedure: as §1

[1] = test system: STZ‐induced hyperglycemic 3 × Tg‐AD mice; test: Morris water maze task in STZ‐treated 3 × Tg‐AD mice; type: in vivo, mouse; conditions: for Morris water maze latency to hidden platform: 40 mg/kg i.p.
Procedure: Mice harboring APPSwe, PS1M146V, and […] transgenes (3×Tg-AD) (Oddo et al., 2003) were purchased from the Jackson Laboratory (004807; Bar Harbor, ME, USA). Six-month-old male homozygous 3×Tg-AD mice were group housed at 20–25°C and 60% relative humidity under a daily 12-h light/12-h dark cycle, with assess to food and water ad libitum. Mice were randomly divided into 3 groups: – streptozocin (STZ), STZ, and STZ/LM-031 (n = 10 per group). STZ-induced hyperglycemia was used to accelerate the development of AD phenotype (Chen et al., 2014). Briefly, the mice were fasted for 12 h each day prior to intraperitoneal (i.p.) injection of STZ ([…]; Sigma-Aldrich) or vehicle (0.1 M sodium citrate pH4.5) for 4 times (days 2, 3, 9, and 10) (Chen et al., 2019). Mouse body weight was measured and blood glucose level was measured on days 1, 8, 15, 22, and 29 using a blood glucose meter (Bioland Technology, Taipei, Taiwan). LM-031 (40 mg/kg) or vehicle (DMSO:Cremophor EL:0.9% saline = 1:2:7) was intraperitoneally injected every day for 22 days from days 15 to 36. All animal procedures were ethically approved by the Institutional Animal Care and Use Committee of National Taiwan Normal University, Taipei, Taiwan (Permit Number: 103002) and were conducted in compliance with the ARRIVE (Animal Research: Reporting In Vivo Experiments) guidelines.
The water maze apparatus consisted of a circular pool with diameter 100 cm and height 76 cm, a submerged platform 1 cm below the water surface, four types of cues providing distal landmarks in the testing room, and a video camera suspended 250 cm above the center of the pool and connected to a video tracking system. The pool was filled up with water (24–26°C, 35 cm high) rendered opaque by the addition of nontoxic white paint. Mice relied on external cues to find the hidden platform in opaque water. One day prior to spatial training, all mice underwent pretraining to examine animals’ swimming ability and to acclimatize them to the pool. For pretraining (day 29), each mouse was placed in the pool to swim for 60 sec. After three trials, a platform was placed in the center of the pool and the mouse was allowed to remain there for 20 sec. For training (days 30–33), the platform was placed in a quadrant and each mouse received four trials per day for 4 consecutive days, with a cue signaling the platform position. The submerged platform remained there and entry points changed semi-randomly throughout all trials. The trial ended either when the mouse climbed onto the platform or when 60 seconds had elapsed. At the end of each trial the mouse was placed on the platform and faced the cue for 20 sec, learning where the platform was. […] All the data were analyzed by PhenoTracker.

O=C(c1ccccc1)c1cc2c(O)cccc2oc1=O [LM‐031, 3‐benzoyl‐5‐hydroxychromen‐2‐one]
GCLC protein level (GCLC): 120%
CREB protein level (CREB): 122%
pCREB (S133) protein level (pCREB (S133)): 124%
BCL2 protein level (BCL2): 106%
GADD45B protein level (GADD45B): 111%
Morris water maze duration in target quadrant ([1]; probe trials 2 and 48 hr (days 34 and 36), STZ 17 s, – STZ 26 s): 24 s
Morris water maze latency to hidden platform ([1]; testing on day 34, STZ 39 s, – STZ 21 s): 26 s
Morris water maze latency to hidden platform ([1]; training day 3, STZ 43 s, – STZ 31 s): 31 s
Morris water maze latency to hidden platform ([1]; training day 4, STZ 40 s, – STZ 26 s): 30 s
